≈ marks a conversion by molar mass, not a printed value.
What was measured:
M. tuberculosis H37Rv [1] = test: Bactericidal activity, CFU enumeration on agar after treatment; assay type: cell-based, Mycobacterium tuberculosis; settings: Mycobacterium tuberculosis, H37RV; M. tuberculosis; 1 mM; log CFU/ml reduction from initial inoculum; read-out: Bactericidal activity (log reduction) at 1 mM
M. abscessus = test: Spectrum of activity: M. abscessus growth inhibition; assay type: cell-based; settings: Mycobacteroides abscessus, 72 h; 3 days; read-out: Antibacterial activity (MIC50) M. abscessus
M. tuberculosis H37Rv [2] = test: M. tuberculosis growth inhibition dose-response (MIC50), turbidity readout; assay type: cell-based, Mycobacterium tuberculosis; settings: Mycobacterium tuberculosis, 240 h; H37Rv, 10 days; read-out: Antibacterial activity (MIC50) M. tuberculosis
[3] = Cytotoxicity assay, HepG2 cells (CellTiter 96 AQueous One); settings: human, HepG2 cells
[4] = Cytotoxicity assay, THP-1 cells (CellTiter 96 AQueous One); settings: human
M. tuberculosis = test: Growth inhibition in acidic medium (pH 6.2); assay type: cell-based, Mycobacterium tuberculosis; settings: Mycobacterium tuberculosis, pH 6.2; read-out: Activity (MIC50) in acidic medium (pH 6.2)
M. bovis BCG Pasteur = test: microbe, parasite or virus in culture; assay type: cell-based; settings: Mycobacterium tuberculosis variant bovis BCG, BCG, read-out: Antibacterial activity (MIC50) M. bovis BCG
Escherichia coli = test: Spectrum of activity: E. coli growth inhibition; assay type: cell-based; settings: Escherichia coli; LB medium, overnight; read-out: Antibacterial activity (MIC50) E. coli
Staphylococcus aureus = test: Spectrum of activity: S. aureus growth inhibition; assay type: cell-based; settings: Staphylococcus aureus; LB medium, overnight; read-out: Antibacterial activity (MIC50) S. aureus
[5] = system: human red blood cells (RBCs); test: Red blood cell lysis assay; settings: hemolysis
M. smegmatis = test: Spectrum of activity: M. smegmatis growth inhibition; assay type: cell-based; settings: Mycolicibacterium smegmatis, 24 h; 1 day; read-out: Antibacterial activity (MIC50) M. smegmatis
M. avium = test: Spectrum of activity: M. avium growth inhibition; assay type: cell-based; settings: Mycobacterium avium, 96 h; 4 days; read-out: Antibacterial activity (MIC50) M. avium

| Structure (SMILES) | log reduction at 1000 µM (M. tuberculosis H37Rv [1]) | MIC50 (M. abscessus) | MIC50 (M. tuberculosis H37Rv [2]) | CC50 at 24 h [3] | CC50 at 24 h [4] | MIC50 (M. tuberculosis) | MIC50 (M. bovis BCG Pasteur) | MIC50 (Escherichia coli) | MIC50 (Staphylococcus aureus) | RBCs HC50 [5] | MIC50 (M. smegmatis) | MIC50 (M. avium) |
| --- | --- | --- | --- | --- | --- | --- | --- | --- | --- | --- | --- | --- |
| O=C(O)c1ccc(-c2ccccc2)s1 [Fragment F10, 5-Phenylthiophene-2-carboxylic acid] | 1.46 | 247 µM (≈ 50.4 µg/mL) | 186 µM (≈ 38 µg/mL) | 612 µM | 544 µM | 97 µM (≈ 19.8 µg/mL) | 397 µM (≈ 81.1 µg/mL) | > 500 µM | > 500 µM | >1,000 μM | 345 µM (≈ 70.5 µg/mL) | > 500 µM |
| Cc1ncc(C(N)=S)[nH]1 [Fragment F3, 2-Methyl-1H-imidazole-4-carbothioamide] | 1.87 | 304 µM (≈ 42.9 µg/mL) | 105 µM (≈ 14.8 µg/mL) | > 1000 µM | 850 µM | 98 µM (≈ 13.8 µg/mL) | 134 µM (≈ 18.9 µg/mL) | > 500 µM | > 500 µM | >1,000 μM | > 500 µM | 198 µM (≈ 28 µg/mL) |
| CCOC(=O)c1c(N)sc(C)c1-c1ccccc1 [Fragment F19, Ethyl 2-amino-5-methyl-4-phenylthiophene-3-carboxylate] | 1.98 | 206 µM (≈ 53.8 µg/mL) | 270 µM (≈ 70.6 µg/mL) | 233 µM | 247 µM | 117 µM (≈ 30.6 µg/mL) | 267 µM (≈ 69.8 µg/mL) | > 500 µM | 344 µM (≈ 89.9 µg/mL) | 453 µM | 491 µM (≈ 128 µg/mL) | 214 µM (≈ 55.9 µg/mL) |
| Oc1noc2cc(Cl)ccc12 [Fragment F27, 6-Chlorobenzo[d]isoxazol-3-ol] | 1.05 | > 500 µM | 395 µM (≈ 67 µg/mL) | > 1000 µM | 777 µM | 210 µM (≈ 35.6 µg/mL) | > 500 µM | > 500 µM | > 500 µM | >1,000 μM | > 500 µM | > 500 µM |
| Oc1ccc(Oc2ccccc2)cc1 [Fragment F29, 4-Phenoxyphenol] | 1.09 | 267 µM (≈ 49.7 µg/mL) | 439 µM (≈ 81.7 µg/mL) | 202 µM | 145 µM | 118 µM (≈ 22 µg/mL) | 387 µM (≈ 72.1 µg/mL) | 201 µM (≈ 37.4 µg/mL) | 348 µM (≈ 64.8 µg/mL) | 912 µM | 250 µM (≈ 46.6 µg/mL) | 411 µM (≈ 76.5 µg/mL) |

Source: paper PMC5826148, “Whole-Cell Screen of Fragment Library Identifies Gut Microbiota Metabolite Indole Propionic Acid as Antitubercular” (Antimicrobial Agents and Chemotherapy, 2018)
